Measurements taken from patent US20030021856A1, “New use of ammonium compounds and/or urea” (priority 1996, published 2003).

Experiments:
[1] = supplied intravenously and perorally; known by intensive care physicians; cited from earlier work
[2] = Peroral self-administration of ammonium chloride by the inventor (respiratory gas exchange); format: in vivo, human; conditions: 80 mmoles ammonium chloride perorally
Source text: Please replace the paragraph beginning at line 1 on page 5 with the following: portal area, especially at acidosis, can be utilized for synthesis of glutamine in the liver. […] When the patient treated is breathing by themself, the supply of ammonium will bring about a so-called compensatory hyperventilation. […] Furthermore, there is a report on the concentration of urea in the vitreous body of dead SIDS patients which is compared to autopsy material from children deceased from other causes at the same age [Blumenfeld T A, et al, Am J Clin Pathol, 71, 219-223 (1979)]. It appeared that children deceased from SIDS have lower urea values than children deceased from other causes. […] The low concentration of urea found is thus not inconsistent with the hypothesis put forward here.

Structure (SMILES): Cl.N [ammonium chloride]
- effect on base excess values [1]: lowers base excess values
- duration of the increased carbon dioxide elimination [2]: ~1 h
- effect on ventilation [2]: slight hyperventilation
- increase in elimination of carbon dioxide [2]: 30 mL/min
- resorption from the gastrointestinal tract [2]: resorbed very quickly
- total carbon dioxide corresponding to the increased elimination ([2]; 30 ml/min for nearly 1h): about 80 mmoles
- RQ (Respiratory Quotient = carbon dioxide emission / oxygen gas uptake) after administration ([2]; value at rest 0.82): 0.87
